Experimental data taken from the supplement of paper PMC4862054.

How the values were obtained:
Conditions in all cases: incubation time: 72 h
MDA-MB-453 [1] = test: normalised viability (% of control), CellTiter-Blue; higher = more viable cells (about 100 = DMSO control)
Procedure: (§1)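 DSRT, CellTiter-Blue viability, 72 h incubation. Signal is normalised to DMSO and benzethonium chloride controls. Value is the normalised response at dose 9.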

CAL-85-1 [2] = test: as above
Procedure: as §1

HDQ-P1 = test: as above
Procedure: as §1

CAL-51 [3] = test: as above
Procedure: as §1

CAL-148 [4] = test: as above
Procedure: as §1

DU-4475 [5] = test: as above
Procedure: as §1

MDA-MB-453 [6] = test: normalised response (% of control), CellTiter-Glo; higher = more viable cells (100 = DMSO, 0 = benzethonium chloride kill control)
How it was run: (§2)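 Breast cancer cell lines were exposed for 72 h in 384-well plates to compound at 5 concentrations, 10-fold apart, covering a 10,000-fold range fixed for each compound. Plates were read for CellTox Green fluorescence and CellTiter-Glo luminescence and normalised to 0.1 % DMSO (100) and a positive kill control (0). Each value is the normalised signal at one concentration of the series.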

Hs578T = test: as above
How it was run: as §2

HCC1937 = test: as above
How it was run: as §2

CAL-85-1 [7] = test: as above
How it was run: as §2

BT-474 = test: as above
How it was run: as §2

BT-549 = test: as above
How it was run: as §2

CAL-51 [8] = test: as above
How it was run: as §2

CAL-148 [9] = test: as above
How it was run: as §2

DU-4475 [10] = test: as above
How it was run: as §2

CAL-120 = test: as above
How it was run: as §2

MDA-MB-436 = test: as above
How it was run: as §2

MFM-223 = test: as above
How it was run: as §2

| SMILES | normalised viability (MDA-MB-453 [1]) [%] | normalised viability (CAL-85-1 [2]) [%] | normalised viability (HDQ-P1) [%] | normalised viability (CAL-51 [3]) [%] | normalised viability (CAL-148 [4]) [%] | normalised viability (DU-4475 [5]) [%] | normalised response (MDA-MB-453 [6]) [%] | normalised response (Hs578T) [%] | normalised response (HCC1937) [%] | normalised response (CAL-85-1 [7]) [%] | normalised response (BT-474) [%] | normalised response (BT-549) [%] | normalised response (CAL-51 [8]) [%] | normalised response (CAL-148 [9]) [%] | normalised response (DU-4475 [10]) [%] | normalised response (CAL-120) [%] | normalised response (MDA-MB-436) [%] | normalised response (MFM-223) [%] |
| --- | --- | --- | --- | --- | --- | --- | --- | --- | --- | --- | --- | --- | --- | --- | --- | --- | --- | --- |
| Nc1nc(Cl)nc2c1ncn2[C@H]1C[C@H](O)[C@@H](CO)O1 [Cladribine] (1000 nM) | 73.7 | 67.8 | 104 | 69.8 | 52.4 | 40.3 | – | – | – | – | – | – | – | – | – | – | – | – |
| COc1cccc2c1C(=O)c1c(O)c3c(c(O)c1C2=O)C[C@@](O)(C(=O)CO)C[C@@H]3O[C@H]1C[C@H](N)[C@H](O)[C@H](C)O1 [Doxorubicin] (1000 nM) | 3.55 | 7.31 | 13.7 | 3.87 | -1.37 | -2.19 | – | – | – | – | – | – | – | – | – | – | – | – |
| CS(=O)(=O)c1ccc(C(=O)Nc2ccc(Cl)c(-c3ccccn3)c2)c(Cl)c1 [Vismodegib] (10000 nM) | 86.5 | 104 | 89.3 | 109 | 81.6 | 123 | – | – | – | – | – | – | – | – | – | – | – | – |
| CN1CC[C@H](c2c(O)cc(O)c3c(=O)cc(-c4ccccc4Cl)oc23)[C@H](O)C1 [Alvocidib] (10000 nM) | 10.1 | 2.66 | 16.4 | 5.62 | 17 | 1.22 | – | – | – | – | – | – | – | – | – | – | – | – |
| COc1cccc2cc(-c3nc([C@H]4CC[C@H](C(=O)O)CC4)n4ncnc(N)c34)[nH]c12 [OSI-027] (10000 nM) | 12.5 | 25.2 | 20.2 | 14.5 | 10.6 | 30.1 | – | – | – | – | – | – | – | – | – | – | – | – |
| COc1cccc2cc(-c3nc([C@H]4CC[C@H](C(=O)O)CC4)n4ncnc(N)c34)[nH]c12 [OSI-027] (1000 nM) | – | – | – | – | – | – | 71.2 | 96.6 | 81.2 | 76.2 | 79.6 | 74.6 | 92.4 | 93.1 | 89.3 | 77.3 | 80.2 | 72.5 |
| CC[C@]1(O)C[C@@H]2CN(CCc3c([nH]c4ccccc34)[C@@](C(=O)OC)(c3cc4c(cc3OC)N(C)[C@H]3[C@@](O)(C(=O)OC)[C@H](OC(C)=O)[C@]5(CC)C=CCN6CC[C@]43[C@@H]65)C2)C1 [Vinblastine] (100 nM) | – | – | – | – | – | – | 57.5 | 22.4 | 67.7 | 37.2 | 52.3 | 35.6 | 31.6 | 42 | 61.9 | 62.9 | 25.3 | 44.1 |
| Nc1ccn([C@@H]2O[C@H](CO)[C@@H](O)[C@@H]2O)c(=O)n1 [Cytarabine] (1000 nM) | – | – | – | – | – | – | 105 | 81.6 | 85.2 | 94.5 | 90.6 | 61.9 | 39.7 | 55.5 | 77.8 | 88 | 46.4 | 101 |
| C[C@]1(c2nc3c(C(N)=O)cccc3[nH]2)CCCN1 [Veliparib] (10000 nM) | 94.9 | 78.9 | 93.2 | 94.7 | 94.9 | 81 | – | – | – | – | – | – | – | – | – | – | – | – |
| OC[C@H]1O[C@@H](n2cnc3c2N=CNC[C@H]3O)C[C@@H]1O [Pentostatin] (10000 nM) | 106 | 108 | 99.7 | 88.3 | 124 | 103 | – | – | – | – | – | – | – | – | – | – | – | – |
| C=CCNC1=C2C[C@@H](C)C[C@H](OC)[C@H](O)[C@@H](C)/C=C(\C)[C@H](OC(N)=O)[C@@H](OC)/C=C\C=C(/C)C(=O)NC(=CC1=O)C2=O [Tanespimycin] (10000 nM) | 3.61 | 21.8 | 24.8 | 4.68 | 9.8 | -0.27 | – | – | – | – | – | – | – | – | – | – | – | – |
| Nc1ccn([C@@H]2O[C@H](CO)[C@@H](O)[C@@H]2O)c(=O)n1 [Cytarabine] (10000 nM) | 58.7 | 68.2 | 87.4 | 14.7 | 29.1 | 22.1 | – | – | – | – | – | – | – | – | – | – | – | – |
| N#CC[C@H](C1CCCC1)n1cc(-c2ncnc3[nH]ccc23)cn1 [Ruxolitinib] (10000 nM) | 66.1 | 115 | 107 | 87.3 | 106 | 113 | – | – | – | – | – | – | – | – | – | – | – | – |
